Among the test systems are HCT-15 colon; SK-MEL-5 melanoma; HCT-116 colon; 786-0 renal; NCI/ADR-RES ovarian; MDA-MB-231 breast; DU-145 prostate; SNB-75 CNS; K-562 leukemia; UACC-62 melanoma.
What all share (assay): NCI-60 cell line screen, 48 h

Where “and” joins values, the source holds several entries; their conditions need not be identical. Identical values can stand only once.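 96-well plates; 48 h exposure; 5 concentrations. Endpoints by linear interpolation between flanking doses. Not reached: highest tested concentration assigned. Abbreviation: GI50, concentration required for 50% inhibition of growth. TGI is the concentration that stops growth completely.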

As to `COc1cc(-c2cc(C(=O)N3CCN(C(=O)c4ccccc4NCc4cccs4)CC3)nc3cc(-c4ccccc4)nn23)cc(OC)c1OC`, the GI50 in the test with HCT-15 colon was 4430 nM; with SK-MEL-5 melanoma, 2850 nM; in the test on HCT-116 colon, 4490 nM; in the test on 786-0 renal it was 11.4 µM; with NCI/ADR-RES ovarian it was 2600 nM; with MDA-MB-231 breast, 8670 nM. The GI50 is 5000 nM with DU-145 prostate, 3320 nM with SNB-75 CNS, 1380 nM in the test on K-562 leukemia and 2800 nM with UACC-62 melanoma. For the same compound, the TGI is over 100 µM in the test with HCT-15 colon; 11.5 µM with SK-MEL-5 melanoma; over 100 µM in the test with HCT-116 colon; over 100 µM in the test with 786-0 renal; 9.29 µM with NCI/ADR-RES ovarian; over 100 µM in the test with MDA-MB-231 breast. The TGI in the test with DU-145 prostate is 40.6 µM; in the test on SNB-75 CNS it was 27.6 µM; with K-562 leukemia, 17.4 µM; in the test on UACC-62 melanoma, over 100 µM.
In the case of `O=C(Nc1ccc(-n2cc(-c3ccncc3)c(-c3ccc(Cl)c(O)c3)n2)cc1)c1ccc(Cl)c(C(F)(F)F)c1`, the GI50 was 444 nM in the test on HCT-15 colon; 600 nM in the test on SK-MEL-5 melanoma; 918 nM in the test on HCT-116 colon; 0.308 µM with 786-0 renal; 2770 nM in the test on NCI/ADR-RES ovarian; 322 nM in the test with MDA-MB-231 breast. Besides, the GI50 in the test on DU-145 prostate is 2700 nM; in the test with SNB-75 CNS, 362 nM; in the test on K-562 leukemia, 404 nM; in the test with UACC-62 melanoma, 2210 nM. For the same compound, the TGI was 2.58 µM in the test on HCT-15 colon; 1.64 µM in the test on SK-MEL-5 melanoma; 2.45 µM with HCT-116 colon; 0.919 µM in the test with 786-0 renal; over 100 µM with NCI/ADR-RES ovarian; 1.48 µM in the test with MDA-MB-231 breast. Besides, the TGI is over 20.3 µM in the test on DU-145 prostate, 1.9 µM in the test with SNB-75 CNS, 4.09 µM with K-562 leukemia and 7.6 µM in the test with UACC-62 melanoma.
For the compound `COc1ccc2nc3c(cc2c1)C(=O)CC(C(F)(F)F)C3` (stereo not given), the GI50 with HCT-15 colon was 1280 nM; in the test with SK-MEL-5 melanoma it was 545 nM; with HCT-116 colon it was 142 nM; with 786-0 renal, 4.36 µM; in the test with NCI/ADR-RES ovarian it was 367 nM; with MDA-MB-231 breast, 2340 nM. Besides, the GI50 in the test with DU-145 prostate was 714 nM; in the test with SNB-75 CNS, 1040 nM; with K-562 leukemia, 406 nM; with UACC-62 melanoma, 602 nM. Moreover, the TGI in the test with HCT-15 colon was over 100 µM; in the test with SK-MEL-5 melanoma, 9.75 µM; in the test on HCT-116 colon, over 100 µM; with 786-0 renal, over 100 µM; in the test with NCI/ADR-RES ovarian it was over 100 µM; with MDA-MB-231 breast, over 100 µM. Further, the TGI with DU-145 prostate, with SNB-75 CNS, with K-562 leukemia and in the test on UACC-62 melanoma was over 100 µM each time.
In the case of `COc1ccc(S(=O)(=O)Nc2c(/C=C\c3cc(OC)c(OC)c(OC)c3)ccc(OC)c2O)cc1OC`, the GI50 in the test on HCT-15 colon was 308 nM; in the test with SK-MEL-5 melanoma, 98.5 nM; in the test on HCT-116 colon it was 171 nM; in the test with 786-0 renal, 0.42 µM; in the test on NCI/ADR-RES ovarian, 1580 nM; in the test with MDA-MB-231 breast it was 338 nM. In addition, the GI50 in the test on DU-145 prostate is 388 nM; with SNB-75 CNS, 251 nM; in the test on K-562 leukemia, 92.7 nM; with UACC-62 melanoma, 53 nM. For the same compound, the TGI in the test on HCT-15 colon is over 100 µM; with SK-MEL-5 melanoma it was 0.435 µM; in the test with HCT-116 colon, over 100 µM; with 786-0 renal it was over 100 µM; in the test with NCI/ADR-RES ovarian, over 100 µM; with MDA-MB-231 breast it was over 100 µM. The TGI in the test on DU-145 prostate, with SNB-75 CNS, in the test on K-562 leukemia and with UACC-62 melanoma was over 100 µM in each case.
Take `CC(=O)SC(C[N+](=O)[O-])c1ccccc1` (stereo not given): the TGI in the test on HCT-15 colon amounted to 4.85 µM; in the test on SK-MEL-5 melanoma it was 8.77 µM; in the test on HCT-116 colon, 4.48 µM; with 786-0 renal it was 23.7 µM; in the test with NCI/ADR-RES ovarian it was 55.1 µM; with MDA-MB-231 breast, 27 µM. In addition, the TGI in the test with DU-145 prostate was over 46.7 µM; in the test on SNB-75 CNS, 7.65 µM; with K-562 leukemia it was 12.8 µM; with UACC-62 melanoma, 28.5 µM.
In the case of `N[C@@H](Cc1ccc(N(CCCl)CCCl)cc1)C(=O)O`, the GI50 in the test with HCT-15 colon was 19400 nM and 21000 nM; with SK-MEL-5 melanoma it was 27000 nM and 18400 nM; in the test with HCT-116 colon it was 25400 nM and 20900 nM; in the test on 786-0 renal, 13.3 µM; in the test on NCI/ADR-RES ovarian, 30600 nM and 32000 nM; in the test on MDA-MB-231 breast, over 100000 nM. The GI50 with DU-145 prostate is 18800 nM; in the test on SNB-75 CNS, 16300 nM and 14400 nM; in the test on K-562 leukemia, 37800 nM; in the test with UACC-62 melanoma it was 8700 nM and 6390 nM. Further, the TGI in the test on HCT-15 colon is > 100 µM and 54.9 µM and 133 µM; in the test on SK-MEL-5 melanoma it was > 100 µM and 40 µM and 88 µM; in the test with HCT-116 colon it was > 100 µM and 51.1 µM and 137 µM; with 786-0 renal it was 48 µM and 72.6 µM; in the test on NCI/ADR-RES ovarian, > 100 µM and 146 µM; with MDA-MB-231 breast it was > 100 µM and 134 µM. For the same compound, the TGI in the test with DU-145 prostate is 85.7 µM and 227 µM; in the test with SNB-75 CNS, 95.9 µM and > 51.6 µM and 123 µM; with K-562 leukemia, 190 µM; in the test on UACC-62 melanoma, > 100 µM and 22.2 µM and 46.2 µM.

For the origin of these results see PubChem BioAssay (NCI).
